According to PubChem BioAssay AID179 (DTP/NCI, 2004):
Active and inactive are the calls of the source.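 How the source made its calls: active means compounds giving half or more protection of infected cells from virus-caused growth loss, again on retest; inactive means the rest.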 Where a SMILES comes first, the peptide text is derived from it. The star is where a group is joined. Boc = CC(C)(C)OC(=O)*

System: CEM cells HIV-1 protection, formazan growth assay
Assay: NCI AIDS Antiviral Assay
Conditions: for IC50: measured here: growth of uninfected CEM cells
Summary of the method: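 Screen of anti-HIV-1 activity in human CEM cells using a formazan-based growth measurement at five drug concentrations. Hits with 50% or greater protection were repeated, and confirmation required reproducible complete protection.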

## CN(Cc1ccccc1)C(=NC#N)N(C)Cc1ccccc1
  EC50: > 170 µM
  IC50: 129 µM

## COc1ccccc1/C=C1\N=C(c2ccccc2)OC1=O
  EC50: > 200 µM
  IC50: 17.4 µM

## O=C1CSC(/C=C/c2ccccc2)N1c1ccc(-n2c(-c3ccccc3)nc3ccccc3c2=O)cc1 (stereo unspecified)
  EC50: > 200 µM
  IC50: 105 µM

## O=C(Nc1ccccc1C(=O)O)/C(=C/c1ccccc1)NC(=O)c1ccccc1
  EC50: > 200 µM
  IC50: > 200 µM

## O=C(NC1C(=O)NNC1c1ccccc1Cl)c1ccccc1 (stereo unspecified)
  EC50: > 158 µM
  IC50: > 158 µM

## Cc1cc(N(CCOS(C)(=O)=O)CCOS(C)(=O)=O)ccc1C=Nc1ccc(-c2nc(Cc3ccccc3)sc2C)cc1
  EC50: > 200 µM
  IC50: 0.427 µM

## CCN1C(=O)N(C)C(O)c2c1nc1ccccn1c2=O (stereo unspecified)
  EC50: > 182 µM
  IC50: 11.5 µM

## CC(C)(C)[Si](C)(C)OCC1OC(n2ccc(=O)[nH]c2=O)C/C1=N/O (stereo unspecified)
  EC50: > 200 µM
  IC50: 74.1 µM

## O=C(O)[C@@H]1OCCOCCO[C@@H](C(=O)O)[C@H](C(=O)O)OCCOCCO[C@H]1C(=O)O
  EC50: > 562 µM
  IC50: > 562 µM

## CCCCC1(N=[N+]=[N-])C(=O)c2cccc3c2N(CCC3)C1=O (stereo unspecified)
  EC50: > 200 µM
  IC50: > 200 µM

## CCOC(=O)CCC(=O)C1c2cccc(O)c2C(=O)c2c(O)cccc21
  EC50: > 28.2 µM
  IC50: 4.9 µM

## O=C1NC(O)c2cccc([N+](=O)[O-])c2O1 (stereo unspecified)
  EC50: > 200 µM
  IC50: 61.7 µM

## N#Cc1c(N2CCCC2)ncn(Cc2ccccc2)c1=O
  EC50: > 200 µM
  IC50: > 200 µM

## CS(=O)(=O)c1nc(NCCc2ccccc2)c2cnn(C3CCCCO3)c2n1 (stereo unspecified)
  outcome: inactive

## Cc1cs/c(=N\C(P(=O)(O)O)P(=O)(O)O)n1C
  EC50: > 100 µM
  IC50: > 100 µM

## Oc1c(CN2CCOCC2)ccc2ccccc12
  EC50: > 200 µM
  IC50: 191 µM

## CC(/C=N/N(C)C1=NCCCCN1)=N/N(C)C1=NCCCCN1
  EC50: > 200 µM
  IC50: > 200 µM

## O=C(O)[C@@H]1CSC(c2cccc(F)c2)N1 (stereo partly specified)
  EC50: > 200 µM
  IC50: > 200 µM

## CC(=N\N=C\c1ccccn1)/C(C)=N/N=C(C)/C(C)=N/N=C(C)/C(C)=N/N=C/c1ccccn1
  outcome: inactive

## O=C1C2=C(c3ccccc31)C(c1ccccc1)NC(=S)N2 (stereo unspecified)
  EC50: > 89.1 µM
  IC50: 37.2 µM

## COc1ccc(P2(=S)Oc3ccccc3-c3ccccc3O2)cc1
  EC50: > 0.2 µM
  IC50: 0.0631 µM

## CCc1c(-c2ccccc2)[nH]c(=S)c(C#N)c1C
  EC50: > 200 µM
  IC50: > 200 µM

## CC1=NN(c2nc(N)nc(CSc3cc(Cl)c(C)cc3S(N)(=O)=O)n2)C(C)(C)C1
  outcome: inactive

## O=c1[nH]cnc2c1C(c1ccccc1)c1ccccc1-2 (stereo unspecified)
  EC50: > 38 µM
  IC50: > 38 µM

## COC1=C(Br)[C@H](O)[C@@]2(C=C1Br)CC(C(=O)NCCCCCN=C(N)N)=NO2
  EC50: > 10 µM
  IC50: > 10 µM

## CCOCC(Br)C(OCC)OCC (stereo unspecified)
  outcome: inactive

## N#Cc1c(NC(=S)NC(=O)c2ccccc2)nc2c(c1-c1ccccc1)CCCC2
  EC50: > 200 µM
  IC50: 141 µM

## C[n+]1c2ccccc2c(/C=N\NS(=O)(=O)c2ccc(O)c(C(=O)O)c2)c2ccccc21
  outcome: inactive

## Cc1cn(C2CC(N=[N+]=[N-])C(COC(=O)[C@@]3(O)CCC4C5CCC6=CC(=O)C=C[C@]6(C)C5[C@@H](O)C[C@@]43C)O2)c(=O)[nH]c1=O (stereo partly specified)
  EC50: 1.15 µM
  IC50: 22.9 µM

## CS(=O)(=O)c1ccc(N2CC2)nn1
  EC50: > 200 µM
  IC50: 89.1 µM

## Cc1c(Cl)c(=O)oc2c3c(ccc12)OC(C)(C)[C@H](OC(=O)C12CCC(C)(C(=O)O1)C2(C)C)[C@@H]3OC(=O)C12CCC(C)(C(=O)O1)C2(C)C (stereo partly specified)
  EC50: 0.282 µM
  IC50: 5.62 µM

## O=C(O)Cn1cnc2c(=O)[nH]c(Nc3ccccc3)nc21
  EC50: > 200 µM
  IC50: > 200 µM

## COc1c(C)c2c(c(O)c1C/C=C(\C)CCC(=O)O)C(=O)OC2
  EC50: > 7.76 µM
  IC50: 0.0355 µM

## OC1C2C3CCC(C3)C2C(O)C2C3CCC(C3)C12 (stereo unspecified)
  EC50: > 200 µM
  IC50: > 200 µM

## CSc1nc2c(c(=O)[nH]1)N=C(c1ccc([N+](=O)[O-])cc1)CC(c1ccccc1)N2 (stereo unspecified)
  outcome: inactive

## O=S(=O)(O)C(I)(I)S(=O)(=O)O
  EC50: > 200 µM
  IC50: > 200 µM

## C/C(=N\N(C)C)C(CN(C)C)C(c1ccccc1)c1c(O)c2ccccc2oc1=O (stereo unspecified)
  EC50: > 100 µM
  IC50: 91.2 µM

## Cc1cc2c(cc1Cl)SC(NNC(=O)c1ccccc1)=NS2(=O)=O
  EC50: 123 µM
  IC50: 132 µM

## O=c1cc(-c2ccccc2)oc2cc(OCCSCCCCCCCCCCSCCOc3ccc4c(=O)cc(-c5ccccc5)oc4c3)ccc12
  EC50: > 1.95 µM
  IC50: > 1.95 µM

## CN(C)c1ccc(C(=S)c2ccc(N(C)C)cc2)cc1
  EC50: > 200 µM
  IC50: 0.741 µM

## O=C1CC2(CC=CCC23OCCO3)CC(CI)O1 (stereo unspecified)
  EC50: > 200 µM
  IC50: > 200 µM

## COC1=CC(=O)c2c(O)c(CO)cc(O)c2C1=O
  outcome: inactive

## c1sc(NC2=NCCO2)c2c1CCCC2
  EC50: > 200 µM
  IC50: 166 µM

## CN(C)Cc1cc(C(=O)/C=C/c2ccc(O)cc2)cc(CN(C)C)c1O
  outcome: inactive

## Cc1occc1C(=S)Nc1ccc(Cl)c(C(=O)OCC(C)C)c1
  EC50: 0.0123 µM
  IC50: 18.6 µM

## Cc1ccc2oc(=O)cc(CC(=O)O)c2c1
  EC50: > 1150 µM
  IC50: > 1150 µM

## O=C(O)c1cc(O)c2ccc(N=Nc3ccc(/C=C/c4ccc(N=Nc5ccc6c(O)cc(C(=O)O)nc6c5O)cc4S(=O)(=O)O)c(S(=O)(=O)O)c3)c(O)c2n1
  EC50: 10.2 µM
  IC50: 50.1 µM

## COc1ccc(/C=C2\SC(=S)N(C=C3C(=O)NC(=S)NC3=O)C2=O)cc1OC
  EC50: > 200 µM
  IC50: 29.5 µM

## Cc1[nH]c2ccccc2c1C(=O)CC1(O)C(=O)Nc2ccccc21 (stereo unspecified)
  outcome: inactive

## CCCCCCCCCCCCCCCC(=O)OCC(C[As](=O)(O)O)OC(=O)CCCCCCCCCCCCCCC (stereo unspecified)
  EC50: > 38 µM
  IC50: > 38 µM

## O=S1Cc2nc3ccccc3n2C1c1c(F)cccc1F (stereo unspecified)
  EC50: > 117 µM

## CC(C)OC(=O)/C=C/C(=O)O/C=C/[N+](=O)[O-]
  EC50: > 200 µM
  IC50: 105 µM

## O=C1CSC(c2ccccc2[N+](=O)[O-])N1c1ccc(-n2c(-c3ccccc3)nc3ccccc3c2=O)cc1 (stereo unspecified)
  EC50: > 200 µM
  IC50: 126 µM

## CN1C(=O)/C(=C2\SC(=O)N(CN3CCCCC3)C2=O)c2ccccc21
  EC50: > 200 µM
  IC50: 27.5 µM

## CC(=O)c1ccc2c(c1)NC(=O)CC(C)N2 (stereo unspecified)
  EC50: > 200 µM
  IC50: > 200 µM

## CC1CCC2CC(=O)NC(=O)CC12 (stereo unspecified)
  EC50: > 457 µM
  IC50: > 457 µM

## CCCCCCCn1ccnc1NCCCCCCCCCCNc1nccn1CCCCCCC
  EC50: > 37.2 µM
  IC50: 10 µM

## CCN(CC)CC[NH-].O=C([O-])[O-].O=C([O-])[O-].[Co+3].[K+]
  EC50: > 200 µM
  IC50: 18.6 µM

## O=c1n(N=S(=O)(c2ccccc2)c2ccccc2)c(=O)n2n1C1C=CC2CC1
  EC50: > 200 µM
  IC50: > 200 µM

## COC(=O)C1(Cc2ccccc2)Cc2ccccc2C1O (stereo unspecified)
  EC50: > 200 µM
  IC50: 91.2 µM

## C=C(C)CC1(O)C(=O)C(OCC)=C1OCC (stereo unspecified)
  EC50: > 200 µM
  IC50: > 200 µM

## COc1c2cc(C(C)(C)C)cc1Cc1cccc(c1O)Cc1cc(C(C)(C)C)cc(c1OC)Cc1cccc(c1O)Cc1cc(C(C)(C)C)cc(c1OC)Cc1cccc(c1O)C2
  EC50: > 151 µM
  IC50: > 151 µM

## Cc1ccc2[nH]c(=O)c(C(C#N)c3ccccc3)nc2c1 (stereo unspecified)
  outcome: inactive

## COc1cc2c(cc1OC)NC(C)=CC(C)=N2
  EC50: > 200 µM
  IC50: > 200 µM

## COc1ccc(C2C(Cl)C(=O)N2n2cnc3ccccc3c2=O)cc1 (stereo unspecified)
  EC50: > 3.8 µM
  IC50: > 3.8 µM

## CCOC(=O)/C(C#N)=C/c1ccco1
  EC50: > 263 µM
  IC50: > 263 µM

## CCCCCCCCCCCCCCCCCCNC(=S)/N=C/c1c(O)c2ccccc2[nH]c1=O
  EC50: > 200 µM
  IC50: 44.7 µM

## CC(C)c1cccc(C(C)C)c1NC(=O)C(=O)Cc1nc2ccc([N+](=O)[O-])cc2[nH]c1=O
  EC50: > 490 µM
  IC50: 89.1 µM

## CCOP(=O)(Nc1ccc(-c2ccc(N)cc2)cc1)OCC
  EC50: > 200 µM
  IC50: 170 µM

## S=P(NC1CCCCC1)(NC1CCCCC1)NC1CCCCC1
  EC50: > 200 µM
  IC50: > 200 µM

## COc1ccc(C2OCC3C(c4ccc(OC)c(OC)c4)OCC23)cc1OC (stereo unspecified)
  EC50: > 200 µM
  IC50: 97.7 µM

## COc1nc(=O)n(C)cc1B(O)O
  EC50: > 200 µM
  IC50: 32.4 µM

## NC(=O)NC1=NC(Cc2ccccc2)C(=O)N1Cc1ccccc1 (stereo unspecified)
  EC50: > 200 µM
  IC50: 182 µM

## COc1cc(CNc2nc3c(N)cc(C(F)(F)F)cc3nc2-c2ccccc2)cc(OC)c1OC
  EC50: > 20.4 µM
  IC50: > 20.4 µM

## Cc1cc(C)c2nc3c(c(C(O)C4CCCCN4)c2c1)CC/C3=C\c1ccc(Cl)cc1 (stereo unspecified)
  EC50: > 22.9 µM
  IC50: > 22.9 µM

## CNc1ccc(N=O)cc1
  EC50: > 200 µM
  IC50: 1.07 µM

## CCOC(=O)C(CC(C)C)NC(=O)C(Cc1ccccc1)NC(=O)CNC(=O)OC(C)(C)C (stereo not drawn) (Boc-Gly-Phe-Leu-OEt; configuration not given here)
  EC50: > 200 µM
  IC50: 8.51 µM

## O=[As](O)(O)c1ccccc1F
  EC50: > 200 µM
  IC50: 141 µM

## CC(C)=CC(=O)N1CCN(C(=O)C=C(C)C)CC1
  EC50: > 501 µM
  IC50: > 501 µM

## O=C1CSC(c2ccc([N+](=O)[O-])cc2)N1c1nc(-c2ccc3c(c2)CCCC3)cs1 (stereo unspecified)
  EC50: 155 µM
  IC50: 263 µM

## O=c1c2ccccc2[nH]c2c(O)ccc(O)c12
  outcome: inactive

## CN1CCN2c3ccccc3CC(C#N)(C#N)C2C1 (stereo unspecified)
  outcome: inactive

## CC1(C)Oc2ccc3c(=O)c(-c4ccccc4)c(-c4ccccc4)oc3c2C1C(=O)O (stereo unspecified)
  EC50: > 200 µM
  IC50: 72.4 µM

## Cc1ccc(C2=NOC(=O)[C@@H]3CCCC[C@@H]23)cc1
  EC50: > 200 µM
  IC50: 97.7 µM

## O=C1c2ccccc2-c2ccc3c4ccc5c6c(ccc(c7ccc1c2c73)c64)-c1ccccc1C5=O
  EC50: > 200 µM
  IC50: > 200 µM

## O=S(=O)(c1ccccc1)N1CC2CC(Br)C(Br)CC21 (stereo unspecified)
  EC50: > 45.7 µM
  IC50: > 45.7 µM

## O=c1c2ccc(Cl)cc2oc2c(CNc3ccc(S(=O)(=O)Nc4nccs4)cc3)cccc12
  EC50: > 151 µM
  IC50: > 151 µM
